Results from paper PMC6602958, “Pharmacokinetics of anti-infectious reagents in silkworms” (Scientific Reports, 2019).
≈ marks a conversion by molar mass, not a printed value. Read-outs that look alike come from different tables or passages of the source.

Key:
Candida albicans [1] = assay: Antifungal activity (MIC) by micro dilution with or without silkworm hemolymph; format: cell-based
Experimental: Antimicrobial and antifungal activities of each compound were measured by a micro dilution method[19],[20]. To measure protein binding to antifungal activity, silkworm hemolymph was collected by cutting the pseudopodium using scissors, and centrifuged at 3000 rpm for 5 min at 4 °C.

Candida albicans [2] = assay: Silkworm infection model with Candida albicans (ED50); format: in vivo, Bombyx mori (silkworm); conditions: silkworm infection model with Candida albicans
cytochrome P450 [3] = assay: Decay of cytochrome P450 substrates in in vitro culture of the silkworm midgut (HPLC); conditions: for HPLC peak area of substrate, Sample 1 / HPLC peak area of substrate, Sample 2: midgut culture, raw data of Fig. 3
Experimental: Silkworm midgut was incubated in medium with cytochrome P450 substrates at 30 °C. The samples were collected, extracted by acetone, and evaporated. The amounts of substrates were determined by HPLC analysis.
Silkworms (5th instar, 5 days) were dissected in a buffer (10 mM HEPES/NaOH, 0.9% NaCl, pH 7.9), and isolated organs were incubated with 3 mL TC-100 medium containing 10% fetal bovine serum, 50 µg/ml gentamicin, and substrates for the metabolic reaction. Whole samples (medium and organ) were homogenized and extracted by equal volumes of acetone followed by evaporation. Extracted samples were dissolved in 50 mM NaOAc buffer and treated with beta-glucosidase to measure the fluorescence of metabolized 7-ethoxycoumarin[6]. […] Samples for HPLC were dissolved in 50% methanol. HPLC analysis was performed using a PEGASIL ODS SP column (φ4.5 mm × 250 mm) with isocratic elution at a flow rate of 1 ml/min.

[4] = human serum; ref Schafer-Korting et al. 27; cited from earlier work
[5] = Protein-binding capacity in silkworm hemolymph (filter unit, HPLC)
cytochrome P450 [6] = assay: Metabolism of luciferin derivatives in cultured silkworm midgut (P450-Glo, luminometer); format: in vitro ADME, Bombyx mori (silkworm); conditions: silkworm midgut incubated with luciferin substrate at 30 °C
cytochrome P450 [7] = assay: Metabolism of luciferin-ME by microsomal fractions from the silkworm midgut; format: biochemical, Bombyx mori (silkworm); conditions: Lineweaver-Burk plot
Experimental: Silkworms were immersed in buffer (10 mM HEPES/NaOH, 0.9% NaCl, pH7.9), and organs were isolated and homogenized in a buffer (100 mM sodium phosphate, 1 mM EDTA, 2 mM benzamidine, 10% glycerol) by a glass-Teflon homogenizer. The tissue homogenates were centrifuged at 9000 × g for 10 min at 4 °C. The supernatant was further centrifuged at 49,000 rpm for 30 min at 4 °C. The precipitate was suspended in buffer (100 mM sodium phosphate, 1 mM EDTA, 2 mM benzamidine, 10% glycerol) and frozen at −80 °C after flash-freezing with liquid nitrogen until use.
Microsomes and substrates were suspended in final 0.25 ml buffer comprising 0.1 M sodium phosphate buffer (pH 7.5) and 0.1 mM EDTA, and pre-incubated for 5 min at 30 °C. A cytochrome P450 reaction was initiated by adding a NADPH-generating system containing 3.3 mM glucose-6-phosphate, 1.25 mM NADP, 3.3 mM MgCl2, and 0.25 U glucose-6-phosphate dehydrogenase as a final concentration.
Microsome fractions were prepared from the silkworm midgut, and incubated with luciferin-ME for 5 min at 30°C. The reactions were initiated by the addition of an NADPH-regeneration system. Production of luciferin was determined using a luminometer. (a) Titration of luciferin-ME. (b) Lineweaver Burk plot made from the titration curve.

[8] = Pharmacokinetics of antibiotics in silkworm hemolymph after injection (HPLC); conditions: for HPLC peak area in hemolymph: raw data of Fig. 1; for Cltot (total body clearance): silkworm, injection into hemolymph, dose per compound 10-50 mg/kg
Experimental: Antibiotics were injected into silkworm hemolymph and hemolymph was collected by cutting the legs at the indicated time.
Antibiotics dissolved in saline were injected into the hemolymph of 5th instar silkworms using a 1-mL syringe attached to a 27 G needle. Hemolymph was harvested from abdominal appendages by cutting them with scissors at the indicated time-points after administration, and mixed with an equal volume of acetone. Samples were centrifuged at 15,000 rpm for 5 min at 4 °C, and the supernatants were evaporated with a centrifuge evaporator[18]. The dried materials were dissolved in 50% methanol and filtrated through a 0.45-µm filter. […] The amount of antibiotics in the sample was quantified from the peak area of the chromatogram.

[9] = parameters: method as in PMID 3210270; conditions: sheep, dose 10 mg/kg; cited from earlier work
[10] = rabbit, dose 10 mg/kg; cited from earlier work
[11] = read-out: MIC with 10% hemolymph (B), with 10% silkworm hemolymph
[12] = without silkworm hemolymph, read-out: MIC without hemolymph (A)

Compound `Clc1ccccc1C(c1ccccc1)(c1ccccc1)n1ccnc1` [Clotrimazole] has an MIC (Candida albicans [1]; [11]) of 1.3 µg/mL (≈ 3.77 µM), an MIC (Candida albicans [1]; [12]) of 0.04 µg/mL (≈ 0.116 µM) and an ED50 (Candida albicans [2]) of over 10 mg/kg. The fraction unbound at 10 min, 10 µM (in vitro) was under 0.01.
Work on `CC(=O)N1CCN(c2ccc(OCC3COC(Cn4ccnc4)(c4ccc(Cl)cc4Cl)O3)cc2)CC1` (stereo not drawn) [Ketoconazole] yielded an MIC (Candida albicans [1]; [11]) of 1.3 µg/mL (≈ 2.45 µM), an MIC (Candida albicans [1]; [12]) of 0.04 µg/mL (≈ 0.0753 µM) and an ED50 (Candida albicans [2]) of over 10 mg/kg. The “Metabolism in the silkworm midgut (in words)” value (cytochrome P450 [3]; in vitro organ culture, up to 20 h incubation) was “metabolized in the silkworm midgut”, the “HPLC peak area of substrate, Sample 1” value (cytochrome P450 [3]; 0 h) was 250139 and the “HPLC peak area of substrate, Sample 2” value (cytochrome P450 [3]; 0 h) was 234783. For the same compound, the “HPLC peak area of substrate, Sample 1” value (cytochrome P450 [3]; 1 h) was 277669, the “HPLC peak area of substrate, Sample 2” value (cytochrome P450 [3]; 1 h) was 251170 and the “HPLC peak area of substrate, Sample 1” value (cytochrome P450 [3]; 4 h) was 205212. For the same compound, the “HPLC peak area of substrate, Sample 2” value (cytochrome P450 [3]; 4 h) was 213216, the “HPLC peak area of substrate, Sample 1” value (cytochrome P450 [3]; 20 h) was 217123 and the “HPLC peak area of substrate, Sample 2” value (cytochrome P450 [3]; 20 h) was 164912. The “Protein binding (%) mammal” value [4] was 99%, the fraction unbound at 10 min, 10 µM [5] was under 0.01 and the “Protein-binding capacity in silkworm hemolymph (in words)” value ([5]; silkworm hemolymph) was “high protein-binding capacities in silkworm hemolymph”.
In the case of `COc1ccc2nc(C3=NC(C(=O)O)CS3)sc2c1` (stereo not drawn) [Luciferin-ME], the “Production of luciferin (RFU/organ)” value (cytochrome P450 [6]) is reported as 58,500 RFU/organ, the Km (cytochrome P450 [7]) is reported as 7.8 µM and the Vmax (cytochrome P450 [7]) is reported as 3.0 pmol/min/mg protein.
In the case of `CO[C@H]1/C=C/O[C@@]2(C)Oc3c(C)c(O)c4c(O)c(c(/C=N/N5CCN(C)CC5)c(O)c4c3C2=O)NC(=O)/C(C)=C\C=C\[C@H](C)[C@H](O)[C@@H](C)[C@@H](O)[C@@H](C)[C@H](OC(C)=O)[C@@H]1C` [Rifampicin], the “HPLC peak area in hemolymph” value ([8]; 1 min after injection) is reported as 1080705, the “HPLC peak area in hemolymph” value ([8]; 10 min after injection) is reported as 246911 and the “HPLC peak area in hemolymph” value ([8]; 30 min after injection) is reported as 125859. The “HPLC peak area in hemolymph” value ([8]; 45 min after injection) was 103195, the “HPLC peak area in hemolymph” value ([8]; 75 min after injection) was 64446 and the “HPLC peak area in hemolymph” value ([8]; 90 min after injection) was 59307. The “HPLC peak area in hemolymph” value ([8]; 150 min after injection) was 20209, the “HPLC peak area in hemolymph” value ([8]; 180 min after injection) was 11026 and the “HPLC peak area in hemolymph” value ([8]; 240 min after injection) was 4977. The “HPLC peak area in hemolymph” value ([8]; 360 min after injection) was 2816, the “Time-course of the decrease in concentration in hemolymph (in words)” value ([8]; in vivo) was “biphasic” and the “Difference in total clearance between silkworm and mammal” value ([8]; silkworm (Bombyx mori), in vivo) was 10 fold. The “Cltot (total body clearance)” value ([8]; two-compartment model) was 2.11 mL/g/h, the Cltot [9] was 0.31 mL/g/h and the Vdss [9] was 1.3 mL/g.
With `CN(C)[C@@H]1C(O)=C(C(N)=O)C(=O)[C@@]2(O)C(O)=C3C(=O)c4c(O)cccc4[C@@](C)(O)[C@H]3C[C@@H]12` [Tetracycline] the “HPLC peak area in hemolymph” value ([8]; 0.1 min after injection) was 10505876, the “HPLC peak area in hemolymph” value ([8]; 1 min after injection) was 8079061 and the “HPLC peak area in hemolymph” value ([8]; 5 min after injection) was 4188656. The “HPLC peak area in hemolymph” value ([8]; 10 min after injection) was 3076056, the “HPLC peak area in hemolymph” value ([8]; 20 min after injection) was 2727973 and the “HPLC peak area in hemolymph” value ([8]; 30 min after injection) was 1928231. For the same compound, the “HPLC peak area in hemolymph” value ([8]; 60 min after injection) was 2239912, the “HPLC peak area in hemolymph” value ([8]; 90 min after injection) was 1941121 and the “HPLC peak area in hemolymph” value ([8]; 120 min after injection) was 1803643. For the same compound, the “HPLC peak area in hemolymph” value ([8]; 180 min after injection) was 1414738, the “HPLC peak area in hemolymph” value ([8]; 240 min after injection) was 1202608 and the “Time-course of the decrease in concentration in hemolymph (in words)” value ([8]; after administration into hemolymph, alpha and beta phase, two-compartment model) was “biphasic”. For the same compound, the “Cltot (total body clearance)” value ([8]; two-compartment model) was 0.07 mL/g/h and the Cltot [10] was 0.35 mL/g/h.
